Consider 22 molecules from patent US20110077251A1, “NOVEL 17 BETA LUPANE DERIVATIVES” (priority 2009, published 2011).

SMILES strings stand for the structures.

Assay [1] relates to HIVIIIB. The experiment in a line: HIV-1 replication in MT2 cell line with 30% human serum (RT activity in supernatant). Type of assay: cell-based. The note with it: MT2 cells, day 5 after infection, average if tested more than once, read-out: MT2 (HIVIIIB) with human serum IC50 range. The protocol: (§1) HIV-1 Replication in MT2 cell line with and without 30% human serum: The cells are infected at a Multiciplicity of Infection (MOI) of 0.5 for 3 h and then washed twice with complete media to remove residual virus. Cells are then resuspended at 0.5×10^6/ml in complete medium (RPMI, 10% FBS, 1% sodium pyruvate), and seeded into 96-well plates (6.25×10^4/well). The cells are cultured in the presence or absence of various concentrations of test compounds in serial dilutions for 3 days at 37° C. The test compounds are serially diluted in complete medium supplemented or not with 30% human serum. After 3 days, 100 μL of cultured medium with cells are replaced with 120 μL of freshly diluted test compounds in complete medium containing or not 30% Human serum. The level of HIV-1 replication is determined at days 5 after infection by the presence of viral RT activity in harvested supernatant fluid. The IC50 values for the virus replication are determined by using GRAPHPAD PRISM software.
(§2) The IC50 of the compounds tested in accordance with the HIV replication activity assay MT2 (HIVIIIB) with or without human serum are represented in Table 6.

The test system of assay [2] is HIVIIIB. Put plainly: HIV-1 replication in MT2 cell line without human serum (RT activity in supernatant). Type of assay: cell-based. The note with it: MT2 cells, day 5 after infection, average if tested more than once, read-out: MT2 (HIVIIIB) IC50 range. As for the experimental part: as §1, §2
The mark [3] stands for this setting: Human immunodeficiency virus 1, 120 h.

As a reminder, the IC50 is the concentration needed to halve the response being measured. With `C=C(C)[C@@H]1CC[C@]2(NC(=O)C(C)C)CC[C@]3(C)[C@H](CC[C@@H]4[C@@]5(C)CC[C@H](OC(=O)CC(C)(C)C(=O)O)C(C)(C)[C@@H]5CC[C@]43C)[C@@H]12` [Cpd 13-10, 3β-O-(3′,3′-Dimethylsuccinyl)-17β-isobutyrylamino-28-norlup-20(29)-ene], the IC50 in the assay with HIVIIIB [1] (setting [3]) and in the assay with HIVIIIB [2] (setting [3]) was less than 199 nM each time. In the case of `C=C(C)[C@@H]1CC[C@]2(NC(=O)NC)CC[C@]3(C)[C@H](CC[C@@H]4[C@@]5(C)CC[C@H](OC(=O)CC(C)(C)C(=O)O)C(C)(C)[C@@H]5CC[C@]43C)[C@@H]12` [Cpd 11-7, 3β-O-(3′,3′-Dimethylsuccinyl)-17β-[N′-(methyl)ureido]-28-norlup-20(29)-ene], the IC50 in the assay with HIVIIIB [1] (setting [3]) and in the assay with HIVIIIB [2] (setting [3]) was less than 199 nM each time. Regarding `C=C(C)[C@@H]1CC[C@]2(NC(=O)NC(=O)OC)CC[C@]3(C)[C@H](CC[C@@H]4[C@@]5(C)CC[C@H](OC(=O)CC(C)(C)C(=O)O)C(C)(C)[C@@H]5CC[C@]43C)[C@@H]12` [Cpd 11-1, 3β-O-(3′,3′-Dimethylsuccinyl)-17β-[N′-(methoxycarbonyl)ureido]-28-norlup-20(29)-ene], the concentration for half-maximal inhibition (IC50) in the assay with HIVIIIB [1] (setting [3]) and in the assay on HIVIIIB [2] (setting [3]) was less than 199 nM each time. Regarding `C=C(C)[C@@H]1CC[C@]2(NC(C)=O)CC[C@]3(C)[C@H](CC[C@@H]4[C@@]5(C)CC[C@H](OC(=O)CC(C)(C)C(=O)O)C(C)(C)[C@@H]5CC[C@]43C)[C@@H]12` [Cpd 13-1, 17β-Acetylamino-3β-O-(3′,3′-dimethylsuccinyl)-28-norlup-20(29)-ene], the IC50 with HIVIIIB [1] (setting [3]) and in the assay on HIVIIIB [2] (setting [3]) was less than 199 nM in each case. Take `C=C(C)[C@@H]1CC[C@]2(NC(=O)CCN3CCCC3)CC[C@]3(C)[C@H](CC[C@@H]4[C@@]5(C)CC[C@H](OC(=O)CC(C)(C)C(=O)O)C(C)(C)[C@@H]5CC[C@]43C)[C@@H]12` [Cpd 13-11, 3β-O-(3′,3′-Dimethylsuccinyl)-17β-(3-pyrrolidin-1-yl-propionylamino)-28-norlup-20(29)-ene]: the IC50 in the assay on HIVIIIB [1] (setting [3]) and in the assay on HIVIIIB [2] (setting [3]) was less than 199 nM each time. As to `C=C(C)[C@@H]1CC[C@]2(NC(=O)OCc3ccccc3)CC[C@]3(C)[C@H](CC[C@@H]4[C@@]5(C)CC[C@H](OC(=O)CC(C)(C)C(=O)O)C(C)(C)[C@@H]5CC[C@]43C)[C@@H]12` [Cpd 14-2, 3β-O-(3′,3′-Dimethylsuccinyl)-17β-benzyloxycarbonylamino-28-norlup-20(29)-ene], the IC50 with HIVIIIB [2] (setting [3]) was less than 199 nM. For the molecule `C=C(C)[C@@H]1CC[C@]2(NC(=O)c3ccncc3)CC[C@]3(C)[C@H](CC[C@@H]4[C@@]5(C)CC[C@H](OC(=O)CC(C)(C)C(=O)O)C(C)(C)[C@@H]5CC[C@]43C)[C@@H]12` [Cpd 13-8, 3β-O-(3′,3′-Dimethylsuccinyl)-17β-(pyridin-4-ylcarbonyl)-amino-28-norlup-20(29)-ene], the 50% inhibitory concentration (IC50) with HIVIIIB [1] (setting [3]) was 200 to 999 nM; with HIVIIIB [2] (setting [3]) it was less than 199 nM.

On to `C=C(C)[C@@H]1CC[C@]2(NC(=O)C(=O)N(C)C)CC[C@]3(C)[C@H](CC[C@@H]4[C@@]5(C)CC[C@H](OC(=O)CC(C)(C)C(=O)O)C(C)(C)[C@@H]5CC[C@]43C)[C@@H]12` [Cpd 13-3, 17β-Dimethylaminooxalyl-amino-3β-O-(3′,3′-dimethylsuccinyl)-28-norlup-20(29)-ene], for which the IC50 in the assay with HIVIIIB [1] (setting [3]) and with HIVIIIB [2] (setting [3]) was less than 199 nM each time. For the molecule `C=C(C)[C@@H]1CC[C@]2(NC(=O)OC(C)(C)C)CC[C@]3(C)[C@H](CC[C@@H]4[C@@]5(C)CC[C@H](OC(=O)CC(C)(C)C(=O)O)C(C)(C)[C@@H]5CC[C@]43C)[C@@H]12` [Cpd 8-1, 3β-O-(3′,3′-Dimethylsuccinyl)-17β-tert-butyloxycarbonylamino-28-norlup-20(29)-ene], in the assay on HIVIIIB [2] (setting [3]), the concentration for half-maximal inhibition (IC50) is less than 199 nM. As to `CC(=O)NC12CCC(C(C)C)C1C1CCC3C4(C)CCC(OC(=O)CC(C)(C)C(=O)O)C(C)(C)C4CCC3(C)C1(C)CC2` (stereo not drawn) [Cpd 22-1, 3β-O-(3′,3′-Dimethylsuccinyl)-17β-acetylamino-28-norlupane], the IC50 in the assay with HIVIIIB [1] and with HIVIIIB [2] was less than 199 nM in each case. Regarding `C=C(C)[C@@H]1CC[C@]2(NC(=O)N[C@@H](C(=O)O)C(C)C)CC[C@]3(C)[C@H](CC[C@@H]4[C@@]5(C)CC[C@H](OC(=O)CC(C)(C)C(=O)O)C(C)(C)[C@@H]5CC[C@]43C)[C@@H]12` [Cpd 11-4, 3β-O-(3′,3′-Dimethylsuccinyl)-28-norlup-20(29)-ene-17β-yl-N-carbamoyl-L-valine], the IC50 in the assay on HIVIIIB [2] (setting [3]) is less than 199 nM. As to `C=C(C)[C@@H]1CC[C@]2(NC(=O)c3ccccc3)CC[C@]3(C)[C@H](CC[C@@H]4[C@@]5(C)CC[C@H](OC(=O)CC(C)(C)C(=O)O)C(C)(C)[C@@H]5CC[C@]43C)[C@@H]12` [Cpd 13-7, 17β-Benzoylamino-3β-O-(3′,3′-dimethylsuccinyl)-28-norlup-20(29)-ene], the IC50 with HIVIIIB [2] (setting [3]) was less than 199 nM. Consider `C=C(C)[C@@H]1CC[C@]2(NC(=O)N[C@@H](C(=O)O)C(C)C)CC[C@]3(C)[C@H](CC[C@@H]4[C@@]5(C)CC[C@H](OC(=O)CC(C)(C)CC(=O)O)C(C)(C)[C@@H]5CC[C@]43C)[C@@H]12` [Cpd 11-5, 3β-O-(3′,3′-Dimethylglutaryl)-28-norlup-20(29)-ene-17β-yl-N-carbamoyl-L-valine], for which the 50% inhibitory concentration (IC50) in the assay on HIVIIIB [2] (setting [3]) was less than 199 nM. The same measure, in the same setting: the figure for `C=C(C)[C@@H]1CC[C@]2(NC(=O)CC(C)(C)C(=O)O)CC[C@]3(C)[C@H](CC[C@@H]4[C@@]5(C)CC[C@H](OC(=O)CC(C)(C)C(=O)O)C(C)(C)[C@@H]5CC[C@]43C)[C@@H]12` [Cpd 13-4, 3β-O,17β-N-bis(3′,3′-dimethylsuccinyl)-28-norlup-20(29)-ene] is less than 199 nM. Consider `C=C(C)[C@@H]1CC[C@]2(NC(=O)c3nnc(C)o3)CC[C@]3(C)[C@H](CC[C@@H]4[C@@]5(C)CC[C@H](OC(=O)CC(C)(C)C(=O)O)C(C)(C)[C@@H]5CC[C@]43C)[C@@H]12` [Cpd 13-12, 3β-O-(3′,3′-Dimethylsuccinyl)-17β-[(5-methyl-[1,3,4]oxadiazole-2-carbonyl)-amino]-28-norlup-20(29)-ene], for which the half-inhibitory concentration (IC50) in the assay with HIVIIIB [1] (setting [3]) was less than 199 nM.

Regarding `C=C(C)[C@@H]1CC[C@]2(NC(=O)NCC3CCN(C)CC3)CC[C@]3(C)[C@H](CC[C@@H]4[C@@]5(C)CC[C@H](OC(=O)CC(C)(C)C(=O)O)C(C)(C)[C@@H]5CC[C@]43C)[C@@H]12` [Cpd 11-14, 3β-O-(3′,3′-Dimethylsuccinyl)-17β-[N′-(1-methyl-piperidin-4-ylmethyl)-ureido]-28-norlup-20(29)-ene], in the assay with HIVIIIB [1] (setting [3]), the half-inhibitory concentration (IC50) is less than 199 nM. For `C=C(C)[C@@H]1CC[C@]2(NC(=O)Nc3nnc(C)o3)CC[C@]3(C)[C@H](CC[C@@H]4[C@@]5(C)CC[C@H](OC(=O)CC(C)(C)C(=O)O)C(C)(C)[C@@H]5CC[C@]43C)[C@@H]12` [Cpd 11-15, 3β-O-(3′,3′-Dimethylsuccinyl)-17β-[3-(5-methyl-[1,3,4]oxadiazol-2-yl)-ureido]-28-norlup-20(29)-ene], the IC50 in the assay on HIVIIIB [1] (setting [3]) was less than 199 nM. For `C=C(C)[C@@H]1CC[C@]2(N)CC[C@]3(C)[C@H](CC[C@@H]4[C@@]5(C)CC[C@H](OC(=O)[C@H]6CC[C@@](C)(C(=O)O)C6(C)C)C(C)(C)[C@@H]5CC[C@]43C)[C@@H]12` [Cpd 9-2, 3β-O-[(1′S,3′R)-2′,2′,3′-Trimethyl-cyclopentane-3′-carboxylic acid-1′-carboxyl]-17β-amino-28-norlup-20(29)-ene], in the assay on HIVIIIB [1] (setting [3]), the 50% inhibitory concentration (IC50) is less than 199 nM. Regarding `C=C(C)[C@@H]1CC[C@]2(N)CC[C@]3(C)[C@H](CC[C@@H]4[C@@]5(C)CC[C@H](OC(=O)CC(C)(C)C(=O)O)C(C)(C)[C@@H]5CC[C@]43C)[C@@H]12` [Cpd 9-1, 17β-Amino-3β-O-(3′,3′-dimethylsuccinyl)-28-norlup-20(29)-ene], in the assay on HIVIIIB [1] (setting [3]), the IC50 is less than 199 nM.

In the case of `C=C(C)[C@@H]1CC[C@]2(NC(=O)CC(C)(C)CC(=O)O)CC[C@]3(C)[C@H](CC[C@@H]4[C@@]5(C)CC[C@H](OC(=O)CC(C)(C)CC(=O)O)C(C)(C)[C@@H]5CC[C@]43C)[C@@H]12` [Cpd 13-5, 3β-O,17β-N-bis(3′,3′-dimethylglutaryl)-28-norlup-20(29)-ene], the 50% inhibitory concentration (IC50) in the assay on HIVIIIB [2] (setting [3]) was less than 199 nM. For the molecule `C=C(C)[C@@H]1CC[C@]2(NC(=O)N3CCCCC3)CC[C@]3(C)[C@H](CC[C@@H]4[C@@]5(C)CC[C@H](OC(=O)CC(C)(C)C(=O)O)C(C)(C)[C@@H]5CC[C@]43C)[C@@H]12` [Cpd 11-11, 3β-O-(3′,3′-Dimethylsuccinyl)-17β-[(piperidine-1-carbonyl)-amino]-28-norlup-20(29)-ene], the concentration for half-maximal inhibition (IC50) in the assay with HIVIIIB [1] (setting [3]) was less than 199 nM. Turning to `C=C(C)[C@@H]1CC[C@]2(NC(=O)C(=O)OC)CC[C@]3(C)[C@H](CC[C@@H]4[C@@]5(C)CC[C@H](OC(=O)CC(C)(C)C(=O)O)C(C)(C)[C@@H]5CC[C@]43C)[C@@H]12` [Cpd 13-2, 3β-O-(3′,3′-Dimethylsuccinyl)-17β-methoxyoxalyl-amino-28-norlup-20(29)-ene], in the assay with HIVIIIB [2] (setting [3]), the IC50 was less than 199 nM.
